One assay addresses T1, wild-type human CDK3 (Homo sapiens, UniProt Q00526).
T1 construct: Full-length cDNAs of wild-type human CDK3; expressed in transfected cells; host or cells: MDA-MB-157 breast carcinoma cells, lentiviral vector pHIV-dTomato
Put plainly: Cell-based assay for CDK3 inhibition: fraction of Tomato+ MDA-MB-157 cells infected with wild-type CDK3-expressing lentivirus.

The target of another assay is T2, wild-type human CDK2 (Homo sapiens, UniProt P24941).
T2 construct: Full-length cDNAs of wild-type human CDK2 conjugated with a HA tag; expressed in transfected cells; host or cells: MDA-MB-157 breast carcinoma cells, lentiviral vector pHIV-dTomato
Put plainly: Cell-based assay for CDK2 inhibition: fraction of Tomato+ MDA-MB-157 cells infected with wild-type CDK2-expressing lentivirus.

Method for wild-type human CDK2: MDA-MB-157 cells were cultured in RPMI with 10% FBS+PS 1X and Glu 1X.
In this experiment, MDA-MB-157 cells were plated at 5×10^5 cells per P100 plate. Cells were infected with 5 ml of media supernatant containing the wild-type of both CDK3 and CDK2 lentivirus, with 1 × polybrene solution. 24 hrs post-infection, the media were changed to virus-free polybrene-free media. 48 hrs post-infection, cells were replated into 24-well plates, at 25,000 cells per well. […] On day 5 after plating, the cells were harvested, centrifuged, suspended in RPMI and aliquoted at 200 μl per well into 96-well plates. 4′,6-diamidino-2-phenylindole (DAPI) was added to the final concentration of 1 μg/ml and the samples were analyzed for DAPI and Tomato fluorescence using the flow cytometer.
Method for wild-type human CDK3: MDA-MB-157 cells were cultured in RPMI with 10% FBS+PS 1× and Glu 1×.
In the experiment shown in FIG. 2, MDA-MB-157 cells were plated at 10^5 cells per well of a 6-well plate and infected with 1 ml of lentiviral stocks expressing wild-type CDK3 or E195D CDK3 mutant, with 1× polybrene solution. 24 hrs post-infection, the media were changed to virus-free polybrene-free media. 8 days post-infection (FIG. 2) or 23 days post-infection (FIG. 2), the samples were immediately analyzed for Tomato (red fluorescent marker carried in the vector) fluorescence using Becton-Dickinson LSRII flow cytometer. The fraction of the infected cells was defined as the percentage of Tomato+cells.
In this experiment, MDA-MB-157 cells were plated at 5×10^5 cells per P100 plate. Cells were infected with 5 ml of media supernatant containing the wild-type CDK3 lentivirus, with 1× polybrene solution. 24 hrs post-infection, the media were changed to virus-free polybrene-free media. 48 hrs post-infection, cells were replated into 24-well plates, at 25,000 cells per well. The culture media (1 ml volume) in each well contained the CDK3 inhibitor SNX9-1-20 at 2, 1.75, 1.5, 1.25, 1, 0.9, 0.75, 0.5, 0.35, 0.2 and 0 μM (DMSO 0.1%), in duplicates. […] 4′,6-diamidino-2-phenylindole (DAPI) was added to the final concentration of 1 μg/ml and the samples were analyzed for DAPI and Tomato fluorescence using the flow cytometer.

Regarding `CC(C)[C@H](CO)Nc1nc(Nc2cccc(Cl)c2)c2ncn(C(C)C)c2n1` [Purvalanol-A, Purvalanol A], the “fraction of infected (Tomato+) cells, wild-type CDK3 lentivirus” value on wild-type human CDK3 (1.6 μM inhibitor, day 5 after plating, Example 2 (without inhibitor: 48.85% SNX9-1-20 experiment, 14.8% Purvalanol-A experiment)) is 66.5%. Further, the EC50 was 600 nM at wild-type human CDK3 (Example 2, FIG. 4 and FIG. 5, day 5, read-out: concentration producing half-maximal effect on the increase in the fraction of cells infected with the wild-type CDK3 lentivirus); 200 nM at wild-type human CDK2 (Example 2, FIG. 5, day 5, read-out: concentration producing half-maximal effect on the increase in the fraction of infected cells (printed: wild-type CDK3 lentivirus; follows the CDK2 result)). For the same compound, the “fraction of wild-type CDK2 infected (Tomato+) cells” value on wild-type human CDK2 (1.6 μM inhibitor, day 5 after plating, 25.5% in the absence of inhibitor, FIG. 5) was 65.25%.

Values taken from patent US10584369B2, “Cell-based methods for measuring activity of a protein inhibitor” (priority 2013, dated 2020).
